Results as given in patent publication US9102648B1, “Bioavailable diacylhydrazine ligands for modulating the expression of exogenous genes via an ecdysone receptor complex” (Intrexon Corporation, priority 2003, dated 2015).

System: mutated ecdysone receptor-based gene switch
Experiment: In vivo SEAP induction, ligand by IP injection
Design: species or system C57BL/6 mouse
Conditions: mouse serum
How it was run: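 Gene switch plasmids (receptor under CMV promoter) electroporated into quadriceps of C57BL/6 mice; 3 days later ligand given IP at 2.6 μmol or 26 nmol in 50 μL DMSO per mouse. Serum SEAP measured by chemiluminescence 2-11 days after dosing, averaged over four animals, expressed as % of GS™-E ligand induction.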

CCc1ccc(C(=O)NN(C(=O)c2cc(C)cc(C)c2)C(C)C(C)(C)C)cc1 (stereo not drawn) [RG-103451]
Secreted Alkaline Phosphatase (percentage of GS ™-E ligand induction) Day 2 (IP 2.6 μmol ligand 3 days after electroporation, day 2 after ligand): 76 percentage of GS ™-E ligand induction | Secreted Alkaline Phosphatase (percentage of GS ™-E ligand induction) Day 3 (IP 2.6 μmol ligand, day 3 after ligand): 73 percentage of GS ™-E ligand induction | Secreted Alkaline Phosphatase (percentage of GS ™-E ligand induction) Day 11 (IP 2.6 μmol ligand, day 11 after ligand): 371 percentage of GS ™-E ligand induction
